Experimental data reported in patent US20190255146A1, “POLYPEPTIDES FOR IMPROVED RESPONSE TO ANTI-CANCER THERAPY” (MUSC FOUNDATION FOR RESEARCH DEVELOPMENT, priority 2016, published 2019).

Key:
[1] = system: UM-SCC-22A-derived xenograft tumors; experiment: HPV(−) UM-SCC-22A-derived xenograft tumor growth in SCID mice; type: in vivo
Description: (§1) To determine whether HPV(+) compared to HPV(−) HNSCC cells are more sensitive to stress-mediated growth inhibition in response to chemotherapeutic drugs, it was first established HPV(+) UM-SCC-47- and HPV(−) UM-SCC-22A-derived xenograft tumors in SCID mice. After the xenograft-derived tumors were ˜75-100 mm^3, the mice were treated with cisplatin (3.5 mg/kg) for two weeks, which is below its maximum tolerated doses (van Moorsel et al, 1999). Then, tumor volumes were measured at days 0 and 14 of treatment. […] After tumor growth measurements in the mice were taken, the tumors were surgically removed and the effects of cisplatin on CerS1-6 mRNA were measured by qRT-PCR.
Eight arginine residues (R8) were included on the N-terminus to enhance cell penetration of the E2F5 peptide (Rancher and Ryu, 2015).
In vivo studies. Severe combined immunodeficient (SCID) mice were purchased from Jackson Laboratories. Age- and sex-matched mice were used. All animal protocols were approved by the Institutional Animal Care and Use Committee at the Medical University of South Carolina. UM-SCC22A or UM-SCC47 cells (75,000) were implanted into the flanks of SCID mice (n=5-8 mice). When the tumors were palpable, the mice were treated every three days with 3.5 mg/kg cisplatin, 20 mg/kg C18-pyr-cer, or corresponding amount of vehicle control and/or 3.76 μg E2F5-peptide or scrambled control peptide. Tumor volume was measured using calipers. At the end of the 14-day treatment, the mice were euthanized and tumor tissues were collected (Sentelle et al, 2007; Saddoughi et al, 2013).

CerS1-6 mRNA = CerS1-6 mRNA by qRT-PCR in HPV(+) UM-SCC-47 xenograft-derived tumors; type: in vivo, mice; settings: day 14 versus day 0
Description: as §1
Quantitative RT-PCR. RNA was extracted from cell pellets using RNeasy kit (Qiagen) per the manufacturer's instructions. cDNA was generated using equal amounts of RNA from each sample and iScript cDNA synthesis kit (Bio-Rad) per manufacturer's instructions. Reactions were carried out using SsoFast probes mix (Bio-Rad) and TaqMan primer probes (ThermoFisher Scientific) in a StepOne Plus qPCR cycler as described by the manufacturer.
(§2) In vivo studies. […] Age- and sex-matched mice were used. […] Tumor volume was measured using calipers.

UM-SCC-47 cells = experiment: Growth inhibition in culture, IC50 determination by MTT assay; type: cell-based
Description: (§3) IC50 determination by MTT assay. Cells were plated in 96-well plates and allowed to adhere for 20 h, then treated with the indicated concentrations of drug. After 48 h treatment, the MTT assay (ATCC) was performed as described previously (Sentelle et al, 2012).

UM-SCC-22A cells = experiment: as above; type: cell-based; settings: UM-SCC-22A (HPV−) cells, 48 h; read-out: IC50 (concentration that inhibited growth by 50%)
Description: as §3

Drp1 [2] = experiment: Drp1 oligomerization by Western blotting without reducing agents; type: cell-based; settings: HPV(+) UM-SCC47 cells
Description: FIGS. 7A-F. E2F5/Drp1 complex enhances HPV-E7/ceramide-dependent lethal mitophagy. (A) UM-SCC47 cells were treated with cisplatin or C18-pyr-cer and Western blotting was performed with cell lysates in the absence of reducing agents in the lysing buffer to detect monomeric and dimeric Drp1 protein abundance compared to vehicle-treated controls. Actin was used as a loading control. (B-C) Cell death was assessed by trypan blue exclusion assay in UM-SCC47 cells expressing dominant-negative Drp1 mutant (K38A-DRP1) and treated with C18-pyr-cer (B) or cisplatin (C) compared to vector-transfected controls. […] (D-E) Association between E2F5 and Drp1 in response to ceramide stress (C18-pyr-cer) was measured in UM-SCC-47 cells using PLA (D) or immunoprecipitation followed by Western blotting (E) with anti-Drp1 or anti-E2F5 antibodies. IgG was used as a control. […] PLA signals were quantified as described by the manufacturer using the PLA quantification software. […] Effects of siRNA-mediated HPV-E6/E7 knockdown on pRB, HPV-E7 and p53 protein abundance were also confirmed by Western blotting compared to Scr-siRNA-transfected controls in the absence/presence of C18-pyr-cer (right panel). Total RB was used a loading control (Rb band, upper panel).
Immunoblotting. Cells were lysed in RIPA buffer plus protease inhibitor cocktail on ice for 15 minutes then centrifuged. […]

CerS1 = CerS1 localization, Western blotting of cytoplasm versus mitochondria enriched fractions of UM-SCC-47 cells; type: cell-based; settings: cisplatin 1 and 4 h versus 0 h
Description: FIGS. 2A-G. HPV-E6 enhances chemotherapy-mediated cellular stress and CerS1/ceramide-mediated lethal mitophagy. (A-B) Effects of siRNA-mediated knockdown of HPV-E6/E7 on HPV(+) UM-SCC-47 cell death was assessed by MTT compared to Scr-siRNA-transfected and/or vehicle-treated controls. Successful knockdown of HPV-E6/E7 proteins were confirmed by Western blot analysis (B). […] (C) Effects of ectopic expression of HPV-E6 versus E7 on HPV(−) UM-SCC-22A cell death were measured by MTT. HPV-E6/E7 protein abundance was measured by Western blotting. […] (D) Effects of shRNA-mediated knockdown of CerS1 on mitophagy in response to cisplatin were measured by live cell imaging confocal micrographs of UM-SCC-47 cells stained with LTG and MTR. Scr-shRNA-transfected and/or vehicle-treated cells were used as controls. […] Images were quantified using ImageJ. (E) Cytoplasmic versus mitochondrial localization of CerS1 in the presence/absence of cisplatin at 0, 1, and 4 h was measured by Western blotting using anti-CerS1 antibody in cytoplasm (cyto)—versus mitochondria (mito)-enriched cellular fractions of UM-SCC-47 cells. Actin and Tom 20 were used as controls for cytoplasm- and mitochondria-enriched fractions, respectively. […] (F-G) Effects of shRNA-mediated knockdown of CerS6, confirmed by Western blotting (F), on UM-SCC-47 cell death in response to cisplatin were measured by trypan blue exclusion assay (G). […]

LC3B = LC3B lipidation by Western blotting in UM-SCC-47 cell extracts; type: cell-based; settings: UM-SCC-47 cells, versus vehicle
Description: FIGS. 12A-C. Knockdown of autophagy inducer LC3 inhibits cisplatin-mediated cell death in HPV(+) HNSCC cells. (A) Induction of autophagy in response to cisplatin was assessed by detection of LC3B lipidation using Western blotting in HPV(+) UM-SCC-47 cell extracts with anti-LC3B antibody compared to vehicle (veh) treated controls. Actin was used as a loading control. […] Samples shown are from the same representative blot but not in contiguous lanes. (B-C) Effects of siRNA-mediated knockdown of LC3B on cisplatin-mediated cell death were measured and IC50 concentrations were calculated by MTT assays compared to Scr-siRNA-transfected controls. […] Si-RNA-mediated knockdown of LC3B was confirmed using Western blotting with anti-LC3B antibody compared to Scr-siRNA-transfected controls (C). Actin was used as a loading control.
(§4) Immunoblotting. Cells were lysed in RIPA buffer plus protease inhibitor cocktail on ice for 15 minutes then centrifuged. 30ug of protein from the supernatant were run on Criterion™ TGX™ Precast Gels (Bio-Rad).

[3] = system: UM-SCC-47-derived xenograft tumors; experiment: HPV(+) UM-SCC-47-derived xenograft tumor growth in SCID mice; type: in vivo; settings: HPV(+) UM-SCC-47 xenografts, cisplatin 3.5 mg/kg for two weeks, tumor volumes days 0 and 14
Description: as §1, §2

Drp1 [4] = molecular target: T1, Drp1 (Homo sapiens, UniProt O00429); experiment: Drp1 recruitment to mitochondria in HPV(−) UM-SCC-22A cells (Western blotting of mitochondria-enriched fractions); type: cell-based; settings: 5 uM peptide, 20 uM C18-pyr-cer, 1.5 hours
T1 construct: Western blotting using whole cell (UM-SCC-22A) lysates versus mitochondria-enriched fractions; endogenous in cells; host or cells: UM-SCC-22A
Description: Images were quantified using FIJI.
as §4
Cell fractionation. Cells were treated with 40 uM cisplatin or vehicle for eight hours, 20 uM C18-pyr-cer or vehicle and/or 5 uM scr-pept or E2F5-pept for 1.5 hours. Mitochondria isolation kit (ThermoFisher Scientific) was used as described by the manufacturer.

[5] = molecular target: T2, retinoblastoma protein (RB) (UniProt P06400 2-928, limits assumed); experiment: PLA with anti-GFP and anti-RB antibodies, UM-SCC-22A cells
T2 construct: whole, on cells; Endogenous intracellular protein, detected with anti-RB antibody; also called pRB
T2 sequence (looked up): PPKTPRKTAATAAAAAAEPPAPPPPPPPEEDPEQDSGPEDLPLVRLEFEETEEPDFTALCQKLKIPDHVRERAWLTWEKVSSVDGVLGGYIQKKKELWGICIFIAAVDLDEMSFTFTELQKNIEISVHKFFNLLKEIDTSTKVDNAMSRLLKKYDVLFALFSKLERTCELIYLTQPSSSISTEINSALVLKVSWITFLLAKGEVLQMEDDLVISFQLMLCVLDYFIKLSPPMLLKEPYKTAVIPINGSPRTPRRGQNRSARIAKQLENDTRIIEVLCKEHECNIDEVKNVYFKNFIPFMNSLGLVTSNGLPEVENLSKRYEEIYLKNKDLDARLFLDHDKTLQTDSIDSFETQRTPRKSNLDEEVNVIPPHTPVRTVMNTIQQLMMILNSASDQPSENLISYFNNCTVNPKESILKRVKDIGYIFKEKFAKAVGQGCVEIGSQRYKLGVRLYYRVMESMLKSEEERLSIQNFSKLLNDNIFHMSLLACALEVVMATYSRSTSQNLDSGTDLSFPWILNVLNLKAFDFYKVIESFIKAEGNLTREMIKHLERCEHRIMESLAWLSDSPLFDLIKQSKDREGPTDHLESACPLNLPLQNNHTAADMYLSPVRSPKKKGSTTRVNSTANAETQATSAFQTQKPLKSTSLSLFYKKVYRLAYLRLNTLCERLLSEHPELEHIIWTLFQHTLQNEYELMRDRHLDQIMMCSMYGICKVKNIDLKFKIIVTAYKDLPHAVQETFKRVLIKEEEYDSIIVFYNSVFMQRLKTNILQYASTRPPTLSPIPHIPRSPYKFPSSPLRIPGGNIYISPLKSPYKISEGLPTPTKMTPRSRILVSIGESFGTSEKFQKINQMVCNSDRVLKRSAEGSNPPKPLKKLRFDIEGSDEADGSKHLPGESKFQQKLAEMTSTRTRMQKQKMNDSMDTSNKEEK
From the text: PLA images were quantified using the PLA software as described by the manufacturer. […] Vector-GFP was used as a control (right panel, C).

T1 sequence (O00429 whole entry): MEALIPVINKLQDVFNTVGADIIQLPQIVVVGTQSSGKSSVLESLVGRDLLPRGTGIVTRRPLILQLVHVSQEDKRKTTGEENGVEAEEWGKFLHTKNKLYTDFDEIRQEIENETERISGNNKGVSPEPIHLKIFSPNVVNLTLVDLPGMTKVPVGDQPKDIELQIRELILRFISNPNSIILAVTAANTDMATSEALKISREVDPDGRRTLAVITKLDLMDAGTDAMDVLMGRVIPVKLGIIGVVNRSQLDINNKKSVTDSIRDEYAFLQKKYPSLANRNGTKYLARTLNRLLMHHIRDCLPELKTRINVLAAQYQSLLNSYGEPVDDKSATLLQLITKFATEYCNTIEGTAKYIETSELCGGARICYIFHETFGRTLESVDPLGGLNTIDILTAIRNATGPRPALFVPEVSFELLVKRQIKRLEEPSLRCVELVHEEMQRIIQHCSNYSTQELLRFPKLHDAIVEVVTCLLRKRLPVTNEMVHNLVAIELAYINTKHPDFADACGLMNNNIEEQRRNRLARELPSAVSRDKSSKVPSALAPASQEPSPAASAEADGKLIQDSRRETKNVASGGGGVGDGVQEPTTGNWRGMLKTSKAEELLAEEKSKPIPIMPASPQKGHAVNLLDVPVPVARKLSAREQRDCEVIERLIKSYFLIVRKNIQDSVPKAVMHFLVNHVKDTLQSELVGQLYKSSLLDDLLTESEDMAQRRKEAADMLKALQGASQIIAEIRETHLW

N.N.[Cl][Pt][Cl] [cisplatin]
tumor suppression of xenografts ([1]; HPV(−) UM-SCC-22A xenografts, cisplatin 3.5 mg/kg for two weeks): no detectable tumor suppression | CerS1 and CerS6 mRNA in tumors (CerS1-6 mRNA): induced CerS1 and CerS6 mRNA | IC50 (UM-SCC-47 cells; UM-SCC-47 (HPV+) cells, 48 h, read-out: IC50 (concentration that inhibited growth by 50%)): 8 µM | reduction of cisplatin-mediated growth inhibition by knockdown of CerS1 (UM-SCC-47 cells; UM-SCC-47 cells, CerS1 shRNA versus Scr-shRNA, MTT): ~4 fold | resistance to cisplatin-mediated growth inhibition upon knockdown of E6 and E7 (UM-SCC-47 cells; UM-SCC-47 cells, HPV-E6/E7 siRNA versus Scr-siRNA, MTT): ~8 fold | sensitivity for drug-induced growth inhibition/cell death, UM-SCC-47 compared to UM-SCC-22A cells (UM-SCC-47 cells; cells in culture): ~3 fold | IC50 (UM-SCC-22A cells): 28 µM | Drp1 oligomerization and/or activation (Drp1 [2]): Drp1 oligomerization and/or activation was observed | accumulation of CerS1 in mitochondria (CerS1): increased accumulation of CerS1 in mitochondria | LC3B lipidation (marker of autophagy induction) (LC3B): Increased LC3B lipidation | inhibition of growth of xenografts in response to cisplatin [3]: ~75%

Biotin-RRRRRRRR-LILFVIKLHQDVNDMRNSNQDQTQSEDRESKWY [scr-pept]
tumor growth ([1]; UM-SCC-22A xenografts, 3.76 μg peptide, absence/presence of cisplatin 3.5 mg/kg every 3 days for 2 weeks): no effect | ceramide-induced Drp1 recruitment to mitochondria (Drp1 [4]): not

B1: dimerization domain deleted mutant of E2F5, GFP-tagged (E2F5^Δ84-177-GFP) (other)
chain: MAAAEPASSGQQAPAGQGQGQRPPPQPPQAQAPQPPPPPQLGGAGGGSSRHEKSLGLLTTKFVSLLQEAKDGVLDLKAAADTLICNCFNGDTLLAIQAPSGTQLEVPIPEMGQNGQKKYQINLKSHSGPIHVLLINKESSSSKPVVFPVPPPDDLTQPSSQSLTPVTPQKSSMATQNLPEQHVSERSQALQQTSATDISSAGSISGDIIDELMSSDVFPLLRLSPTPADDYNFNLDDNEGVCDLFDVQILNY
notes: Ectopically expressed in cells; not shown: GFP tag
binding result [5]: binds
